Results taken from patent publication US20130040291A1, “Detection and Quantification of Cellular Stress Response Resolution Pathway Expression and Functionality and the Effects of Agents or Conditions Thereupon” (priority 2011, published 2013).

Columns and labels:
CDNR4 cells [1] = type: cell-based, murine
Experimental: Following the cessation of the calibrated stress conditions exposure, the SR assay raw data is collected in the form of positive and negative wells (or cell growth sites) and in the form of viable or dead cell clones. The next steps of the assay involve expanding viable clones and determining their phenotypes. When the phenotype of interest being investigated in the SR assay is cell survival, the clones can be sub-classified using the testing listed in Table 6. This testing is performed as follows. Clones are removed from the tissue culture vessels in which they were placed before the start of the calibrated stress conditions exposure (using methods appropriate for the cell type), and subdivided into 4 different aliquots. Each aliquot is re-plated in an appropriate tissue culture vessel in medium containing the following. For one aliquot, the medium is growth medium (conditioned medium may be used) only; for a second aliquot the medium is supplemented with guanosine or folic acid at a concentration sufficient to enhance the survival and expansion of HPRT^− clones; for a third aliquot, the medium contains the same level of agent as used for the calibrated stress condition exposure, and the fourth aliquot is placed in HAT-medium containing an amount of aminopterin that is sufficient to induce growth arrest and/or cell death in Phen-HPRT^− cells of the cell type of interest (see above). Cell morphology (where informative for cell behavior and/or gene expression) and cell growth are monitored over the next 2, to 4 days to determine the response of the cells to these differing conditions. Cell clones can be subjected to additional testing as desired to evaluate further endpoints of interest and/or can be cryopreserved for future evaluations.
To subgroup Phen-ah clones as Phen-alt-rev or Phen-alt-irr, a representative group of these clones is tested further by subjecting the clones to repeated rounds of exposure to the calibrated stress conditions. Other stress inducing agents also may be used. Each exposure cycle is followed by a period of time to allow the cells to recover, and thus, to resolve the stress environment. After each exposure round, the percentage of cells that are resistant to the stress inducing agent or condition is recorded. […] The parental cell response that has been used in the examples below is defined as greater than 99% sensitivity to the calibrated stress conditions agent or condition, as evidenced by cell cycle arrest and/or cell death following exposure to the SR induction agent. Other stress response endpoints may be used and will depend upon the nature of the stress inducing agent used; these endpoints are incorporated herein.
The murine mammary epithelial cells designated CDNR4 were grown in their preferred growth medium (42% DMEM, 42% Hams F-12, 12% FBS, 1% 100×L-glutamine, 1% pen-strep, 0.5% to 1% bovine pituitary extract) until approximately 6 million cells were available. Cells were removed from the expansion flasks, counted, and replated at a rate of 500,000 cells per […] flask in growth medium. The flasks were assigned randomly to one of two groups: a vehicle-alone exposure (control group); an ENU-exposure (treated) group. […] For group 1 flasks, a volume of growth medium equal to the volume of ENU was added to the flasks. The cells were exposed to this solution for 1 hour at 37° C.; at the end of this time the solution was removed, the cells were washed with PBS at 37° C., and the cells were re-fed with fresh growth medium.
At the end of 2 weeks, the cells were removed from the flasks with trypsin/EDTA and passed through a 20 to 25 micron pore size sterile Nytran filter. The cell suspension was evaluated by light microscopy for evidence of large clumps, and was re-filtered if necessary using a new sterile Nytran filter of the same size to remove any apparent large clumps of cells. […]

CDNR4 cells [2] = experiment: Determination of the SRID-50% level of 6-TG (calibrated stress conditions); type: cell-based, murine
Experimental: The calibrated stress conditions and the SRID-x % level are determined ideally using parental, control, or vehicle-exposed cells. This portion of the assay requires that several variables, including cell plating density, calibrated stress conditions level, and duration of stress conditions exposure be optimized simultaneously. These variables are interdependent such that each affects the outcome of the other, thereby making this portion of the assay one of the most critical. To achieve high sensitivity for detection of assay endpoints, it is important that the maximum number of cells be evaluated; however, optimal calibrated stress conditions are achieved at relatively low cell plating densities. In addition, cell plating densities and the SKID-x % level of stress inducing agent chosen for use in the assay must be such that fewer than one positive endpoint per well occurs in the assay. Using cell survival as an example, if multiple surviving cell clones are identified in the same well(s) during an experiment, then the cell plating density must be reduced and/or the SRID-x % level must be increased so that the frequency of occurrence of surviving clones is reduced to less than one per well. Thus, optimization of these variables is necessary.
Pilot studies that evaluate a range of cell plating densities and a range of calibrated stress conditions levels for the stress inducing agent of choice are used and are applied to untreated, control or parental cells. It is advisable to use a low plating density that results in rapid expression of stress resolution pathways (within 3 to 4 days where possible), or as quickly as possible after calibrated stress conditions exposure. In spite of potentially significant differences between cells of different types from different tissues and from different species, preliminary results from the SR assay support the conclusion that the optimal plating density for many cell types falls within a predictable range. […] These values can serve as starting points for empirical determination of the optimal cell plating density for the cells of interest to be used in the assay.
After estimating the optimal cell plating density, dose response curves are generated for the calibrated stress conditions agent of interest. For experiments in which cell survival is the phenotype of interest, work with the assay completed to date supports the conclusion that calibrated stress conditions levels that reduce expression of pro-survival pathways to a level that results in survival of one or fewer clones in 50% of the wells of a 96 well plate (defined as the SRID-50%) is the optimal level for assessment of damage avoidance pro-survival pathways. Use of these levels also results in a sufficiently robust expression of damage tolerance paths to make it possible to evaluate differences or changes in expression of these pathways between cell types and/or between differing exogenous exposures. Because cell plating density and level of calibrated stress inducing agent are inter-dependent, it may be necessary to perform several pilot studies using differing cell plating densities and a range of stress-response inducing levels to find the optimal combination of use with the cell type of interest in the assay.
There are two limits associated with Poisson distribution principles that must be considered in selecting the SRID-x % level of stress inducing agent. First, stress induction levels that result in a response frequency, for the response type of interest, that is near or equal to 100% of the sites being evaluated should be avoided and the same considerations are true for stress induction levels resulting in responses frequencies near or equal to 0%. The SR assay cannot accurately quantify response frequencies near 100% or near 0%, and this limitation forms the one of the factors affecting the selection of the SRID-x % level. […]

[3] = system: immortalized human bronchial epithelial cell line #1; experiment: Determination of the SRID-10% dose of 6-TG, cell line #1; type: cell-based; conditions: 600 to 1000 cells per well, 96 well plates
Experimental: (§1) Two immortalized, human bronchial epithelial cells lines were expanded in their preferred growth medium and plated at the rate of 600 to 1000 cells per well in tissue culture wells of 96 well plates. Both cell lines were immortalized using hTERT technology. The cells were exposed to variable 6-TG concentrations that ranged up to 150 micrograms/ml 6-TG. For cell line #1; the SRID-10% dose of 6-TG was determined to be 110 micrograms/ml; for cell line #2 the SRID-10% dose of 6-TG was determined to be 60 micrograms/ml 6-TG. The mCE of cell line #1 was 41%; for cell line #2 it was 25%. Thus, the total pro-survival pathway functionality for cell line #1 was […] (0.41×110 microgms/ml 6-TG); for cell line #2 this value was calculated to be 15.

[4] = system: immortalized human bronchial epithelial cell line #2; experiment: Determination of the SRID-10% dose of 6-TG, cell line #2; type: cell-based; conditions: 600 to 1000 cells per well, 96 well plates
Experimental: as §1

Structure (SMILES) | death of the cells during SR induction phase (CDNR4 cells [1]; 6TG 30 micrograms/ml, one to 3 days after start, 600 cells per well) | cell death after the end of SR induction phase (CDNR4 cells [1]; two to 3 days after 4 days of 6TG 30 micrograms/ml, all plates) [%] | time to cell cycle arrest of all cells after start of 6-TG exposure (CDNR4 cells [2]; 6TG 1 to 100 micrograms/ml) [h] | SRID-50% (1 viable clone in approximately 50% of wells of a 96-well plate) (CDNR4 cells [2]; CDNR4 cells, low plating density, 6-TG for four days) [µg/mL] | SRID-50% (CDNR4 cells [2]; vehicle-exposed/parental CDNR4 cells, 500-600 cells per well of 96 well plate, 6-TG for four days) [micrograms/ml] | SRID-10% dose of 6-TG [3] [micrograms/ml] | SRID-10% dose of 6-TG [4] [micrograms/ml 6-TG] | SR assay results with MNU as pre-exposure agent in place of ENU (CDNR4 cells [1]; compared with the ENU experiments)
Nc1nc2nc[nH]c2c(=S)[nH]1 [6-TG, 6-thioguanine] | greater than 90% | ~100 | ≤ 24 | 35 | 35 | 110 | 60 | –
CN(N=O)C(N)=O [MNU, methylnitrosourea] | – | – | – | – | – | – | – | similar
